# Laboratory results: patent US6892140B1, “Immunogenic cancer peptides and uses thereof” (Enteron, Inc., priority 2000, dated 2005)
# Ends that are not written are not given here.
# System: antibodies in sera from prostate cancer patients
# Test: Prostate cancer serum test of cell surface protein peptides (Table 3)
# Assay type: binding, human
# Set-up: key: +: positive or negative reactivity between peptides representing modified peptide regions of cancer cell surface protein molecules with antibodies in sera from prostate cancer patients; −: positive or negative reactivity between peptides representing modified peptide regions of cancer cell surface protein molecules with antibodies in sera from prostate cancer patients
# Conditions: reactivity of peptide with antibodies in sera from prostate cancer patients
# Source text: Table 3 third column illustrates the positive or negative reactivity between peptides representing modified peptide regions of cancer cell surface protein molecules with antibodies in sera from prostate cancer patients. The presence or absence in prostate cancer cells of the 41 tested molecules is shown as + or − in column four.
# Sixth, employing the immunoassays disclosed herein, each biotinylated peptide is screened as an antigen against sera or other relevant biological fluids containing antibodies taken from one of the following groups: cancer patients, patients with benign lesions or inflammatory conditions, and healthy subjects. Peptides can also be screened using tumor-infiltrating lymphocytes or peripheral blood-born lymphocytes from cancer patients. Candidate peptides we consider cancer-specific or cancer-associated depend on whether they fit the following definitions.
row,Substance,Prostate Cancer Serum Test Result
1,vkNst: Tested peptide of cell surface protein E-Cadherin (VKNST; not fully specified),+
2,raNhs: Tested peptide of cell surface protein integrin alpha 6 (RANHS; not fully specified),−
3,"gtNkt: Tested peptide of cell surface protein CD40 (GTNKT; also: biotin label, end not given here)",+
4,spNhs: Tested peptide of cell surface protein CD44 (SPNHS; not fully specified),−
5,meNkt: Tested peptide of cell surface protein integrin alpha 3 (MENKT; also: biotin label at one end),+
6,rmNit: Tested peptide of cell surface protein integrin alpha 3 (RMNIT; not fully specified),−
7,dkNst: Tested peptide of cell surface protein CD38 (DKNST; not fully specified),−
8,"pgNrt: Tested peptide of cell surface protein CD82 (PGNRT; also: biotin label at one end, end not given here)",−
9,"qkNss: Tested peptide of cell surface protein integrin beta 6 (QKNSS; also: biotin label at one end, end not given here)",−
10,seNas: Tested peptide of cell surface protein integrin alpha 1 (SENAS; not fully specified),−
11,"hkNqt: Tested peptide of cell surface protein ICAM 1 (HKNQT; also: biotin label, end not given here)",−
12,kaNtt: Tested peptide of cell surface protein integrin alpha (v) (KANTT; also: biotin label at one end),−
13,nkNvt: Tested peptide of cell surface protein integrin beta I (NKNVT; also: biotin label at one end),+
14,diNss: Tested peptide of cell surface protein fgfr4 (DINSS; not fully specified),−
15,vgNks: Tested peptide of cell surface protein hepatocyte gfr (VGNKS; not fully specified),−
16,"ghNes: Tested peptide of cell surface protein protein-tyrosine phosphatase kappa (GHNES; also: biotin label, end not given here)",−
17,dkNls: Tested peptide of cell surface protein N-Cadherin (DKNLS; not fully specified),+
18,trNdt: Tested peptide of cell surface protein CD66 (TRNDT; not fully specified),−
19,kaNts: Tested peptide of cell surface protein integrin alpha 5 (KANTS; also: biotin label at one end),−
20,drNhs: Tested peptide of cell surface protein integrin alpha 2 (DRNHS; not fully specified),−
21,dtNrs: Tested peptide of cell surface protein erbB-2 (DTNRS; not fully specified),+
22,daNkt: Tested peptide of cell surface protein erbB-1 (DANKT; not fully specified),+
23,NhSeg: Tested peptide of cell surface protein CD44 (NHSEG; not fully specified),+
24,"gdNrt: Tested peptide of cell surface protein protein-tyrosine phosphatase kappa (GDNRT; also: biotin label, end not given here)",−
25,kNvtNrs: Tested peptide of cell surface protein integrin beta I (KNVTNRS; also: biotin label at one end),−
26,mNtt: Tested peptide of cell surface protein insulin-like gf receptor,−
27,rcNgs: Tested peptide of cell surface protein integrin beta 5 (RCNGS; not fully specified),−

row,Substance,Prostate Cancer Serum Test Result
1,skNfs: Tested peptide of cell surface protein integrin beta 3 (SKNFS; not fully specified),−
2,pdNqt: Tested peptide of cell surface protein integrin beta 5 (PDNQT; also: biotin label at one end),−
3,IrNes: Tested peptide of cell surface protein integrin alpha 5 (LRNES; not fully specified),−
4,nnNNss: Tested peptide of cell surface protein CD9 (NNNNSS; also: biotin label at one end),−
5,"qkNqt: Tested peptide of cell surface protein integrin alpha 9 (QKNQT; also: biotin label at one end, end not given here)",−
6,drNgt: Tested peptide of cell surface protein CD44 (DRNGT; not fully specified),+
7,teNqt: Tested peptide of cell surface protein integrin alpha (v) (TENQT; not fully specified),−
8,vtNrs: Tested peptide of cell surface protein integrin beta I (VTNRS; not fully specified),−
9,keNdt: Tested peptide of cell surface protein protein-tyrosine phosphatase kappa (KENDT; also: biotin label at one end),−
10,saNrs: Tested peptide of cell surface protein CD66 (SANRS; not fully specified),+
11,drNht: Tested peptide of cell surface protein CD46 (DRNHT; not fully specified),−
12,eyNts: Tested peptide of cell surface protein tgfr beta type II (EYNTS; not fully specified),+
13,knNht: Tested peptide of cell surface protein CD63 (KNNHT; also: biotin label at one end),−
14,"heNct: Tested peptide of cell surface protein erbB-3 (HENCT; also: biotin label, end not given here)",−
15,skNqs: Tested peptide of cell surface protein CD66 (SKNQS; not fully specified),−
16,eeNns: Tested peptide of cell surface protein pdgfr alpha (EENNS; not fully specified),−
17,crNvs: Tested peptide of cell surface protein erbB-1 (CRNVS; not fully specified),−
18,seNdt: Tested peptide of cell surface protein protein-tyrosine phosphatase PCP-2 (SENDT; not fully specified),−
19,kiNat: Tested peptide of cell surface protein desmoglein 2 (KINAT; also: biotin label at one end),−
20,trNvs: Tested peptide of cell surface protein pdgfr beta (TRNVS; not fully specified),−
21,pdNdt: Tested peptide of cell surface protein insulin-like gf receptor (PDNDT; also: biotin label at one end),−
22,kdNrt: Tested peptide of cell surface protein pdgfr beta (KDNRT; also: biotin label at one end),−
23,aeNct: Tested peptide of cell surface protein erbB-4 (AENCT; not fully specified),−
24,sdNst: Tested peptide of cell surface protein CD53 (SDNST; not fully specified),−
25,tkNgt: Tested peptide of cell surface protein desmoglein 1 (TKNGT; not fully specified),−
26,ekNgs: Tested peptide of cell surface protein fgfr2 (EKNGS; not fully specified),−
27,qrNit: Tested peptide of cell surface protein integrin alpha 1 (QRNIT; not fully specified),−
